22 molecules from patent US10336761B2, “TGFβ receptor antagonist” (BRISTOL-MYERS SQUIBB COMPANY, priority 2015, dated 2019) can be followed below.

SMILES strings stand for the structures.

Usually IC50 stands for the midpoint of a concentration-inhibition curve.

HIS-TGFβR1 T204D, sequence (P36897 34-503 T204D): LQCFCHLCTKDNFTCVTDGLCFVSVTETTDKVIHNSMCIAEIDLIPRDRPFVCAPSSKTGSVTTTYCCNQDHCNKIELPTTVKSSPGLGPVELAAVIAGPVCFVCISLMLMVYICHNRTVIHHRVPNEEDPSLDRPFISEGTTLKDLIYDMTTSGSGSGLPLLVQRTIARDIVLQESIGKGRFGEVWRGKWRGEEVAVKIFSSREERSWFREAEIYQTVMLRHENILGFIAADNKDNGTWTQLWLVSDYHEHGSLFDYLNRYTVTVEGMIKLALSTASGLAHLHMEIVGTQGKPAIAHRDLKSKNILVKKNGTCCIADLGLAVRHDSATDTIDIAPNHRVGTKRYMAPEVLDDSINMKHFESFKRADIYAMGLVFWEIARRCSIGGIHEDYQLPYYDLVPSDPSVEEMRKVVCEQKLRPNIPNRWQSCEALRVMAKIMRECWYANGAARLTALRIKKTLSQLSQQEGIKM

This assay has as its target HIS-TGFβR1 T204D (Homo sapiens (Human), UniProt P36897, T204D). In words: HTRF probe-displacement assay, HIS-TGFβR1 T204D. In kind it is binding. The settings on record: 1 hour at room temperature.
`CCOCCCNC(=O)c1cnccc1Nc1nc(-c2cccc(C(F)F)n2)nn2cccc12` [Example 172, 4-({2-[6-(difluoromethyl)pyridin-2-yl]pyrrolo[2,1-f][1,2,4]triazin-4-yl}amino)-N-(3-ethoxypropyl)pyridine-3-carboxamide] had an IC50 of 24 nM.

`CC(C)(C)OCCNC(=O)c1cnccc1Nc1nc(-c2cccc(C(F)F)n2)nn2cccc12` [Example 173, N-[2-(tert-butoxy)ethyl]-4-({2-[6-(difluoromethyl)pyridin-2-yl]pyrrolo[2,1-f][1,2,4]triazin-4-yl}amino)pyridine-3-carboxamide]: the IC50 was determined as 48 nM.

Molecule `O=C(NCCOCCO)c1cnccc1Nc1nc(-c2cccc(C(F)F)n2)nn2cccc12` [Example 174, 4-({2-[6-(difluoromethyl)pyridin-2-yl]pyrrolo[2,1-f][1,2,4]triazin-4-yl}amino)-N-[2-(2-hydroxyethoxy)ethyl]pyridine-3-carboxamide] registered a half-maximal inhibitory concentration (IC50) of 23 nM.

Regarding `O=C(N[C@H]1CCCC[C@@H]1O)c1cnccc1Nc1nc(-c2cccc(C(F)F)n2)nn2cccc12` [Example 175, 4-({2-[6-(difluoromethyl)pyridin-2-yl]pyrrolo[2,1-f][1,2,4]triazin-4-yl}amino)-N-[(1S,2S)-2-hydroxycyclohexyl]pyridine-3-carboxamide], the IC50 is 480 nM.

`CN1CCN(CCCNC(=O)c2cnccc2Nc2nc(-c3cccc(C(F)F)n3)nn3cccc23)CC1` [Example 176, 4-({2-[6-(difluoromethyl)pyridin-2-yl]pyrrolo[2,1-f][1,2,4]triazin-4-yl}amino)-N-[3-(4-methylpiperazin-1-yl)propyl]pyridine-3-carboxamide]: the IC50 was found to be 8.5 nM.

`O=C(NC1CCOC1)c1cnccc1Nc1nc(-c2cccc(C(F)F)n2)nn2cccc12` (stereo not shown) [Example 177, 4-({2-[6-(difluoromethyl)pyridin-2-yl]pyrrolo[2,1-f][1,2,4]triazin-4-yl}amino)-N-(oxolan-3-yl)pyridine-3-carboxamide] came in with an IC50 of 21 nM.

Molecule `O=C(NC1CCOCC1)c1cnccc1Nc1nc(-c2cccc(C(F)F)n2)nn2cccc12` [Example 178, 4-({2-[6-(difluoromethyl)pyridin-2-yl]pyrrolo[2,1-f][1,2,4]triazin-4-yl}amino)-N-(oxan-4-yl)pyridine-3-carboxamide] registered an IC50 of 220 nM.

Turning to `O=C(NCCN1CCS(=O)(=O)CC1)c1cnccc1Nc1nc(-c2cccc(C(F)(F)F)n2)nn2cccc12` [Example 179, N-[2-(1,1-dioxo-1,4-thiomorpholin-4-yl)ethyl]-4-({2-[6-(trifluoromethyl)pyridin-2-yl]pyrrolo[2,1-f][1,2,4]triazin-4-yl}amino)pyridine-3-carboxamide], the IC50 is 260 nM.

For the molecule `O=C(N[C@@H]1CCCC[C@H]1O)c1cnccc1Nc1nc(-c2cccc(C(F)F)n2)nn2cccc12` [Example 180, 4-({2-[6-(difluoromethyl)pyridin-2-yl]pyrrolo[2,1-f][1,2,4]triazin-4-yl}amino)-N-[(1R,2R)-2-hydroxycyclohexyl]pyridine-3-carboxamide], the 50% inhibitory concentration (IC50) was determined as 380 nM.

Consider `O=C(NCc1ccccn1)c1cnccc1Nc1nc(-c2cccc(C(F)F)n2)nn2cccc12` [Example 181, 4-({2-[6-(difluoromethyl)pyridin-2-yl]pyrrolo[2,1-f][1,2,4]triazin-4-yl}amino)-N-(pyridin-2-ylmethyl)pyridine-3-carboxamide], for which the IC50 was 32 nM.

As for `CCc1nnc(CNC(=O)c2cnccc2Nc2nc(-c3cccc(C(F)F)n3)nn3cccc23)o1` [Example 182, 4-({2-[6-(difluoromethyl)pyridin-2-yl]pyrrolo[2,1-f][1,2,4]triazin-4-yl}amino)-N-[(5-ethyl-1,3,4-oxadiazol-2-yl)methyl]pyridine-3-carboxamide], the 50% inhibitory concentration (IC50) amounted to 16 nM.

Regarding `O=C(NCc1nccs1)c1cnccc1Nc1nc(-c2cccc(C(F)F)n2)nn2cccc12` [Example 183, 4-({2-[6-(difluoromethyl)pyridin-2-yl]pyrrolo[2,1-f][1,2,4]triazin-4-yl}amino)-N-(1,3-thiazol-2-ylmethyl)pyridine-3-carboxamide], the IC50 was found to be 44 nM.

`CCCNC(=O)c1cnccc1Nc1nc(-c2cccc(C(F)F)n2)nn2cccc12` [Example 184, 4-({2-[6-(difluoromethyl)pyridin-2-yl]pyrrolo[2,1-f][1,2,4]triazin-4-yl}amino)-N-propylpyridine-3-carboxamide] returned an IC50 of 14 nM.

In turn, `O=C(c1cnccc1Nc1nc(-c2cccc(C(F)F)n2)nn2cccc12)N1CCC(O)(c2ccccc2)CC1` [Example 185, 1-[4-({2-[6-(difluoromethyl)pyridin-2-yl]pyrrolo[2,1-f][1,2,4]triazin-4-yl}amino)pyridine-3-carbonyl]-4-phenylpiperidin-4-ol] yielded an IC50 of 1200 nM.

`O=C(c1cnccc1Nc1nc(-c2cccc(C(F)F)n2)nn2cccc12)N1CCCC1` [Example 186, N-{2-[6-(difluoromethyl)pyridin-2-yl]pyrrolo[2,1-f][1,2,4]triazin-4-yl}-3-(pyrrolidine-1-carbonyl)pyridin-4-amine]: the IC50 turned out to be 32 nM.

In turn, `CC(C)(O)CCNC(=O)c1cnccc1Nc1nc(-c2cccc(C(F)F)n2)nn2cccc12` [Example 187, 4-({2-[6-(difluoromethyl)pyridin-2-yl]pyrrolo[2,1-f][1,2,4]triazin-4-yl}amino)-N-(3-hydroxy-3-methylbutyl)pyridine-3-carboxamide] came in with an IC50 of 21 nM.

As for `CC(C)(O)CNC(=O)c1cnccc1Nc1nc(-c2cccc(C(F)F)n2)nn2cccc12` [Example 188, 4-({2-[6-(difluoromethyl)pyridin-2-yl]pyrrolo[2,1-f][1,2,4]triazin-4-yl}amino)-N-(2-hydroxy-2-methylpropyl)pyridine-3-carboxamide], the IC50 is 49 nM.

The molecule `O=C(c1cnccc1Nc1nc(-c2cccc(C(F)F)n2)nn2cccc12)N1CCC1` [Example 189, 3-(azetidine-1-carbonyl)-N-{2-[6-(difluoromethyl)pyridin-2-yl]pyrrolo[2,1-f][1,2,4]triazin-4-yl}pyridin-4-amine] registered an IC50 of 4.3 nM.

In turn, `CCOC(=O)CNC(=O)c1cnccc1Nc1nc(-c2cccc(C(F)F)n2)nn2cccc12` [Example 190, Ethyl 2-{[4-({2-[6-(difluoromethyl)pyridin-2-yl]pyrrolo[2,1-f][1,2,4]triazin-4-yl}amino)pyridin-3-yl]formamido}acetate] came in with an IC50 of 22 nM.

For `O=C(NCc1nc[nH]n1)c1cnccc1Nc1nc(-c2cccc(C(F)F)n2)nn2cccc12` [Example 191, 4-({2-[6-(difluoromethyl)pyridin-2-yl]pyrrolo[2,1-f][1,2,4]triazin-4-yl}amino)-N-(1H-1,2,4-triazol-3-ylmethyl)pyridine-3-carboxamide], the IC50 was determined as 64 nM.

Take `O=C(NCCO)c1cnccc1Nc1nc(-c2cccc(C(F)F)n2)nn2cccc12` [Example 192, 4-({2-[6-(difluoromethyl)pyridin-2-yl]pyrrolo[2,1-f][1,2,4]triazin-4-yl}amino)-N-(2-hydroxyethyl)pyridine-3-carboxamide]: the IC50 was 3.9 nM.

Turning to `O=C(NC1CCC1)c1cnccc1Nc1nc(-c2cccc(C(F)F)n2)nn2cccc12` [Example 193, N-cyclobutyl-4-({2-[6-(difluoromethyl)pyridin-2-yl]pyrrolo[2,1-f][1,2,4]triazin-4-yl}amino)pyridine-3-carboxamide], the IC50 worked out at 23 nM.
